# According to US12281121B2, “N-containing heteroaryl derivative and pharmaceutical composition comprising same as active ingredient for prevention or treatment of cancer” (VORONOI Inc., priority 2019, dated 2025):
# Assays:
# RET (WT) = target: T1, RET (WT) (Homo sapiens, UniProt P07949); test: RET enzyme inhibitory ability, ADP-Glo kinase assay; type: biochemical; details: ATP 10 μM, 25° C., 1 hour
# T1 construct: human RET (658-end, SIGNALCHEM); purchased SIGNALCHEM
# T1 sequence (P07949 658-1114 limits assumed): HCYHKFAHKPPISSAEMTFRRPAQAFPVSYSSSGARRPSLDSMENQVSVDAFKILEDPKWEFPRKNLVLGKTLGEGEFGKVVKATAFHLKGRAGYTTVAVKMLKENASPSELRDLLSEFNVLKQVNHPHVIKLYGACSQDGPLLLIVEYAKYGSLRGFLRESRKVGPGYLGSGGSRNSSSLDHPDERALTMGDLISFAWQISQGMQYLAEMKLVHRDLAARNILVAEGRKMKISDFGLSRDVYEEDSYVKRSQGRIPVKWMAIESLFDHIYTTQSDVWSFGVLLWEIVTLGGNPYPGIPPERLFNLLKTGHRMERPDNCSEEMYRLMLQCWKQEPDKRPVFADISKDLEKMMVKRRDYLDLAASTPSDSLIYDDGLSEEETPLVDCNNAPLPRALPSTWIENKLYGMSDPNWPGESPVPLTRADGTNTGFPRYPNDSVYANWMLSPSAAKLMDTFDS
# Method: The Example compound was reacted with a purified human RET (658-end, SIGNALCHEM) enzyme to evaluate the enzyme inhibitory ability by the following method. As a reaction buffer, a composition of 40 mM Tris-HCl pH 7.4, 20 mM MgCl2, 0.5 mg/mL BSA, and 50 μM DTT was used, and all experimental materials were reacted on the reaction buffer. After the human RET (658-end, 0.8 ng) enzyme was reacted with purified ATP (10 μM) and a specific substrate solution at 25° C. for 1 hour during the experiment, the enzyme activity was confirmed using in vitro ADP-Glo™ kinase assay (Promega). Luminescence was measured by reacting the enzyme activity reaction solution, the ADP-Glo reaction solution, and the enzyme activity detection solution at a ratio of 2:2:1. The degree of inhibition of enzyme activity according to the treatment concentration of each compound was calculated based on the […] of the enzyme activity of a solvent control group in which a compound was not treated, and in this case, the concentration of each compound which suppresses the […] enzyme activity by 50% was determined as an IC50 (nM) value. The IC50 (nM) of each compound was determined by 3 datasets and obtained using Prism (version 7.01, GraphPad) software.
# In the enzyme assay column, RET (WT) is a non-mutated form, RET (V804M) is a mutated form in which the V amino acid at position 804 of the RET is substituted with M, and CCDC6-RET is a form in which the RET (WT) gene and CCDC6 gene are fused.
# [1] = tested on: Ba/F3 KIF5B-RET (V804M) cells; test: Cell proliferation inhibition, CellTiter-Glo; type: cell-based; details: Mus musculus, BaF3, 72 hours
# Method: (§1) Among lung cancer cell lines, which express RET fusion genes, LC-2/ad cells were cultured after adding 10% FBS (HyClone) to RPMI:F12 (1:1) (Invitrogen), and F-12 (Invitrogen) supplemented with 10% FBS was used for TT cells. RPMI-1640 supplemented with 10% FBS and 5 ng/ml IL-3 (R&D Systems) was used for Ba/F3 cells. Transduced Ba/F3 cells were cultured by adding 1 ug/ml puromycin (Invitrogen) to the same medium. 24 hours before cells were treated with the compound, 3000 to 5000 cells were aliquoted into each well of a white clear bottom 96 well plate (Corning). The compound was diluted in DMSO (3-fold dilution, a total of 12 concentrations) and the compound was injected by 0.5 μl such that the final concentration was 0.3 nM to 50 μM. For the measurement of living cells, 72 hours after the compound treatment, the cells were stored at room temperature for 10 minutes using a CellTiter-Glo luminescent cell-viability agent (Promega), and then the luminescence intensity was measured using a reader (SynergyNeo, Biotek). Each experiment was repeated in triplicate. The result value was calculated by the cell growth ratio (%) compared to the control. A graph was drawn using the GraphPad Prism version 5.0 program, and a GI50 (nM) value was calculated.
# (§2) In the cell assay column, LC-2/ad (with CCDC6-RET gene) is a lung cancer cell line, a TT cell line ([…]) is a thyroid cancer cell line, Ba/F3 CCDC6-RET (WT), Ba/F3 KIF5B-RET (WT), and Ba/F3 KIF5B-RET (V804M) are cells in which disease-related traits (CCDC6-RET, KIF5B-RET, and KIF5B-RET (V804M)) are introduced into Ba/F3 cells, and Ba/F3 (naive) is a cell which is not transduced.
# [2] = tested on: Ba/F3 CCDC6-RET (WT) cells; test: Cell proliferation inhibition, CellTiter-Glo; type: cell-based; details: BaF3/CCDC6-RET, 72 hours
# Method: as §1, §2
# [3] = tested on: Ba/F3 KIF5B-RET (WT) cells; test: Cell proliferation inhibition, CellTiter-Glo; type: cell-based; details: Mus musculus, BaF3, 72 hours
# Method: as §1, §2
# Ba/F3 (naive) cells = test: Cell proliferation inhibition, CellTiter-Glo; type: cell-based; details: Mus musculus, BaF3; Ba/F3 not transduced, 72 hours
# Method: as §1, §2
SMILES,IC50 (RET (WT)) [nM],GI50 [1] [nM],GI50 [2] [nM],GI50 [3] [nM],GI50 (Ba/F3 (naive) cells) [nM]
"COc1ccc(CN2CCCN(c3ccc(-c4nc(Nc5cc(C)[nH]n5)c5ccccc5n4)cn3)CC2)cn1 [Example 30, 2-(6-(4-((6-methoxypyridin-3-yl)methyl)-1,4-diazepan-1-yl)pyridin-3-yl)-N-(5-methyl-1H-pyrazol-3-yl)quinazolin-4-amine]",34,25,99,44,1130
"Cc1csc(CN2C3CC2CN(c2ccc(-c4nc(Nc5cc(C)[nH]n5)c5ccccc5n4)cn2)C3)n1 [Example 19, N-(5-methyl-1H-pyrazol-3-yl)-2-(6-(6-((4-methylthiazol-2-yl)methyl)-3,6-diazabicyclo [3.1.1]heptan-3-yl)pyridin-3-yl)quinazolin-4-amine]",40,28,120,29,1230
"Cc1cnc(CN2C3CC2CN(c2ccc(-c4nc(Nc5cc(C)[nH]n5)c5ccccc5n4)cn2)C3)cn1 [Example 26, N-(5-methyl-1H-pyrazol-3-yl)-2-(6-(6-((5-methylpyrazin-2-yl)methyl)-3,6-diazabicyclo [3.1.1]heptan-3-yl)pyridin-3-yl)quinazolin-4-amine]",7,10,37,10,973
"Cc1cc(Nc2nc(-c3ccc(N4CC5CC(C4)N5Cc4ccc(N(C)C)nc4)nc3)nc3ccccc23)n[nH]1 [Example 20, 2-(6-(6-((6-(di-methylamino)py-ridin-3-yl)meth-yl)-3,6-diazabicyclo [3.1.1]heptan-3-yl)pyridin-3-yl)-N-(5-methyl-1H-pyrazol-3-yl)quinazolin-4-amine]",14,6,44,11,2780
"COc1ccc(CN2CCN(c3ccc(-c4nc(Nc5cc(C)[nH]n5)c5ccccc5n4)cn3)CC2(C)C)cn1 [Example 29, 2-(6-(4-((6-meth-oxypyridin-3-yl)methyl)-3,3-dimethyl-piperazin-1-yl)pyridin-3-yl)-N-(5-methyl-1H-pyrazol-3-yl)quinazolin-4-amine]",123,89,454,164,6320
Cc1ccc(CN2C3CC2CN(c2ccc(-c4nc(Nc5cc(C)[nH]n5)c5ccccc5n4)cn2)C3)cn1 [Example 10],10,10,39,9,920
"COc1ccc(CN2CCN(c3ccc(-c4nc(Nc5cc(C)[nH]n5)c5ccccc5n4)cn3)C[C@H]2C)cn1 [Example 36, (R)-2-(6-(4-((6-methoxypyridin-3-yl)methyl)-3-methylpiperazin-1-yl)pyridin-3-yl)-N-(5-methyl-1H-pyrazol-3-yl)quinazolin-4-amine]",59,32,259,63,4800
"COc1ccc(CN2C3CC2CN(c2ccc(-c4nc(Nc5cc(C)[nH]n5)c5ccccc5n4)cn2)C3)cc1 [Example 14, 2-(6-(6-(4-methoxybenzyl)-3,6-diaza-bicyclo[3.1.1]heptan-3-yl)pyridin-3-yl)-N-(5-methyl-1H-pyrazol-3-yl)quinazolin-4-amine]",10,22,33,11,2700
"COc1ccc(CN2CCN(c3ccc(-c4nc(Nc5cc(C)[nH]n5)c5ccccc5n4)cn3)CC23CC3)cn1 [Example 37, 2-(6-(4-((6-methoxypyridin-3-yl)methyl)-4,7-diazaspiro[2.5]oc-tan-7-yl)pyridin-3-yl)-N-(5-meth-yl-1H-pyrazol-3-yl)quinazolin-4-amine]",219,50,305,107,4650
"CCOc1ccc(CN2C3CC2CN(c2ccc(-c4nc(Nc5cc(C)[nH]n5)c5ccccc5n4)cn2)C3)cn1 [Example 24, 2-(6-(6-((6-ethoxypyridin-3-yl)methyl)-3,6-diazabicyclo [3.1.1]heptan-3-yl)pyridin-3-yl)-N-(5-methyl-1H-pyrazol-3-yl)quinazolin-4-amine]",14,10,53,12,4320
"Cc1cc(Nc2nc(-c3ccc(N4CC5CC(C4)N5Cc4ccc(C#N)nc4)nc3)nc3ccccc23)n[nH]1 [Example 9, 5-((3-(5-(4-((5-methyl-1H-py-razol-3-yl)amino)quinazolin-2-yl)pyridin-2-yl)-3,6-diazabicyclo [3.1.1]heptan-6-yl)methyl)pico-linonitrile]",30,23,62,23,822
"COc1ccc(CN2C[C@H]3C[C@@H]2CN3c2ccc(-c3nc(Nc4cc(C)[nH]n4)c4ccccc4n3)cn2)cn1 [Example 34, 2-(6-((1R,4R)-5-((6-methoxy-pyridin-3-yl)methyl)-2,5-diazabicyclo [2.2.1]heptan-2-yl)pyridin-3-yl)-N-(5-methyl-1H-pyrazol-3-yl)quinazolin-4-amine]",16,20,65,19,2590
"Cc1cc(Nc2nc(-c3ccc(N4CC5CC(C4)N5Cc4ccc(F)cc4)nc3)nc3ccccc23)n[nH]1 [Example 22, 2-(6-(6-(4-fluorobenzyl)-3,6-diazabicyclo [3.1.1]heptan-3-yl)pyridin-3-yl)-N-(5-methyl-1H-pyrazol-3-yl)quinazolin-4-amine]",20,6,55,20,1220
"COc1ccc(CN2C3CC2CN(c2ccc(-c4nc(Nc5cc(C)[nH]n5)c5ccccc5n4)cn2)C3)cc1C#N [Example 12, 2-methoxy-5-((3-(5-(4-((5-methyl-1H-pyrazol-3-yl)amino)quina-zolin-2-yl)pyridin-2-yl)-3,6-diazabicyclo [3.1.1]heptan-6-yl)methyl)benzo-nitrile]",38,49,52,15,2540
"Cc1cc(Nc2nc(-c3ccc(N4CC5CC(C4)N5Cc4ccc(OC(C)C)nc4)nc3)nc3ccccc23)n[nH]1 [Example 15, 2-(6-(6-((6-iso-propoxypyridin-3-yl)methyl)-3,6-diazabicyclo [3.1.1]heptan-3-yl)pyridin-3-yl)-N-(5-methyl-1H-pyrazol-3-yl)quinazolin-4-amine]",40,30,75,24,3100
